System: CDK9 at ISG56 and ISG15 promoters
Experiment: ChIP for CDK9 (P-TEFb) at ISG promoters in 2fTGH cells
Format: cell-based, human
Conditions: IFN-α 60 min in presence of TSA
Protocol: FIG. 4. HDAC activity is required for P-TEFb recruitment. (A) HeLa cells were either left untreated or treated with IFN-α for 1 h in presence or absence of 100 or 200 nM of the CDK9 inhibitor flavopiridol (Flay). Using primers spanning intron-exon junctions, nuclear pre-mRNA abundance for ISG54 and RPS11 were quantified using real-time RT-PCR and normalized to GAPDH mRNA. (B) 2fTGH cells were either left untreated or treated with IFN-α in the absence or presence of TSA for 60 min. ChIP assays were performed with antibodies against CDK9 and recovered ISG56 and ISG15 promoter sequences were quantified by real-time PCR relative to input and represented as percent of the input signal. (C) BT474 cells were either left untreated or treated with IFN-α in the absence or presence of TSA after exposure to Geldanamycin (Gelda) for 24 h, as indicated. mRNA for ISG56, OAS2 and c-Myc were quantified by real-time RT-PCR and normalized to GAPDH. […] ISG56 mRNA was quantified using real-time RT-PCR and normalized to GAPDH mRNA abundance (left panel). […] ISG56, Spt5 mRNA, and ISG54 pre-mRNA were quantified using real-time RT-PCR and normalized to GAPDH mRNA abundance.
To directly probe the involvement of P-TEFb in ISG expression, we assessed its recruitment to chromatin in response to IFN treatment. […]

Question: Which “chromatin-bound CDK9 at ISG56 and ISG15 promoters” value does the source give for `CC(/C=C/C(=O)NO)=C\[C@@H](C)C(=O)c1ccc(N(C)C)cc1` [TSA, Trichostatin A] here?
Answer: Its value is “not observed”.

Reference: patent US20190351012A1, “TARGETING OF INTERFERON-STIMULATED GENE EXPRESSION TO TREAT INTERFERONOPATHIES” (New York University, priority 2018, published 2019)
